Test results reported in EP2385948B1, “FUSED THIAZOLO AND OXAZOLO PYRIMIDINONES” (Torrent Pharmaceuticals Limited, priority 2009, dated 2011).

Test system: erythropoietin
Experiment: In vitro erythropoietin induction (ELISA of cell culture supernatant)
Details: Homo sapiens, Hep3B, 16 h; for fold induction at 200 µM: read-out: EPO fold induction, Hep3B cell line, 200 uM, 16 hours, relative to vehicle control
Description: Hep3B cell line (ATCC HB8064) was employed. Induction of erythropoietin was carried out for the indicated dose of compounds for 16 hours duration. At the end of 16 hours, cell culture medium was collected and centrifuged to remove any debris. Supernatant obtained was analyzed for erythropoietin by ELISA (R&D systems, USA). The results were expressed as fold induction as compared to vehicle control.

| SMILES | fold induction at 200 µM | further results |
| --- | --- | --- |
| O=C(O)CNC(=O)c1c(O)nc2sc3c(n2c1=O)CCN(C(=O)OCc1ccccc1)C3 [Compound 26, 3-(Carboxymethyl-carbamoyl)-2-hydroxy-4-oxo-5,8-dihydro-4H,6H-9-thia-1,4a,7-triaza-fluorene-7-carboxylic acid benzyl ester] | 9 to 16 |  |
| O=C(O)CNC(=O)c1c(O)nc2sc3c(n2c1=O)CCN(C(=O)Cc1ccc(Cl)cc1)C3 [Compound 28, ({7-[2-(4-Chloro-phenyl)-acetyl]-2-hydroxy-4-oxo-5,6,7,8-tetrahydro-4H-9-thia-1,4a,7-triaza-fluorene-3-carbonyl}-amino)-acetic acid] | 9 to 16 |  |
| O=C(O)CNC(=O)c1c(O)nc2sc3c(n2c1=O)CCN(C(=O)CC1CCCC1)C3 [Compound 29, {[7-(2-Cyclopentyl-acetyl)-2-hydroxy-4-oxo-5,6,7,8-tetrahydro-4H-9-thia-1,4a,7-triaza-fluorene-3-carbonyl]-amino}-acetic acid] | 9 to 16 |  |
| O=C(O)CCNC(=O)c1c(O)nc2sc3c(n2c1=O)CCCCC3 [Compound 30, 3-[(2-Hydroxy-4-oxo-6,7,8,9-tetrahydro-4H,5H-10-thia-1,4a-diaza-benzo[a]azulene-3-carbonyl)-amino]-propionic acid] | < 2 |  |
| COc1ccc(CN2CCc3c(sc4nc(O)c(C(=O)NCC(=O)O)c(=O)n34)C2)cc1 [Compound 31, {[2-Hydroxy-7-(4-methoxy-benzyl)-4-oxo-5,6,7,8-tetrahydro-4H-9-thia-1,4a,7-triaza-fluorene-3-carbonyl]-amino}-acetic acid] | 5 to 8 |  |
| O=C(O)CNC(=O)c1c(O)nc2sc3c(n2c1=O)CCN(C(=O)c1ccc(Cl)nc1)C3 [Compound 33, {[7-(6-Chloro-pyridine-3-carbonyl)-2-hydroxy-4-oxo-5,6,7,8-tetrahydro-4H-9-thia-1,4a,7-triaza-fluorene-3-carbonyl]-amino}-acetic acid] | 2 to 4 |  |
| O=C(O)CNC(=O)c1c(O)nc2sc3c(n2c1=O)CCN(c1ccc(Cl)nn1)C3 [Compound 35, {[7-(6-Chloro-pyridazin-3-yl)-2-hydroxy-4-oxo-5,6,7,8-tetrahydro-4H-9-thia-1,4a,7-triaza-fluorene-3-carbonyl]-amino}-acetic acid] | < 2 |  |
| N#Cc1cccnc1N1CCc2c(sc3nc(O)c(C(=O)NCC(=O)O)c(=O)n23)C1 [Compound 36, {[7-(3-Cyano-pyridin-2-yl)-2-hydroxy-4-oxo-5,6,7,8-tetrahydro-4H-9-thia-1,4a,7-triaza-fluorene-3-carbonyl]-amino}-acetic acid] |  | fold induction at 12.5 µM (read-out: EPO fold induction, Hep3B cell line, 12.5 uM, 16 hours, relative to vehicle control): < 2 |
| COc1ccc(C(=O)N2CCc3c(sc4nc(O)c(C(=O)NCC(=O)O)c(=O)n34)C2)cc1Cl [Compound 37, {[7-(3-Chloro-4-methoxy-benzoyl)-2-hydroxy-4-oxo-5,6,7,8-tetrahydro-4H-9-thia-1,4a,7-triaza-fluorene-3-carbonyl]-amino}-acetic acid] | 5 to 8 |  |
| O=C(O)CNC(=O)c1c(O)nc2sc3c(n2c1=O)CCCCCC3 [Compound 38, [(2-Hydroxy-4-oxo-5,6,7,8,9,10-hexahydro-4H-11-thia-1,4a-diaza-cycloocta[a]indene-3-carbonyl)-amino]-acetic acid] | 9 to 16 |  |
| O=C(O)CNC(=O)c1c(O)nc2sc3c(n2c1=O)CCN(Cc1ccc2c(c1)CCC2)C3 [Compound 39, [(2-Hydroxy-7-indan-5-ylmethyl-4-oxo-5,6,7,8-tetrahydro-4H-9-thia-1,4a,7-triaza-fluorene-3-carbonyl)-amino]-acetic acid] | 2 to 4 |  |
| CC(NC(=O)c1c(O)nc2sc3c(n2c1=O)CCC(C)(C)C3)C(=O)O (centres unmarked) [Compound 40, 2-[(2-Hydroxy-7,7-dimethyl-4-oxo-5,6,7,8-tetrahydro-4H-9-thia-1,4a-diaza-fluorene-3-carbonyl)-amino]-propionic acid] | 5 to 8 |  |
| CS(=O)(=O)c1ccc(C(=O)N2CCc3c(sc4nc(O)c(C(=O)NCC(=O)O)c(=O)n34)C2)cc1 [Compound 42, {[2-Hydroxy-7-(4-methanesulfonyl-benzoyl)-4-oxo-5,6,7,8-tetrahydro-4H-9-thia-1,4a,7-triaza-fluorene-3-carbonyl]-amino}-acetic acid] | 5 to 8 |  |
| CC(C)[C@H](NC(=O)c1c(O)nc2sc3c(n2c1=O)CCC(C)(C)C3)C(=O)O [Compound 43, 2-[(2-Hydroxy-7,7-dimethyl-4-oxo-5,6,7,8-tetrahydro-4H-9-thia-1,4a-diaza-fluorene-3-carbonyl)-amino]-3-methyl-butyric acid (L-isomer)] | < 2 |  |
| C[C@@H](NC(=O)c1c(O)nc2sc3c(n2c1=O)CCC(C)(C)C3)C(=O)O [Compound 44, 2-[(2-Hydroxy-7,7-dimethyl-4-oxo-5,6,7,8-tetrahydro-4H-9-thia-1,4a-diaza-fluorene-3-carbonyl)-amino]-propionic acid (D-isomer)] | < 2 |  |
| O=C(O)CNC(=O)c1c(O)nc2sc3c(n2c1=O)CCN(Cc1cc(C(F)(F)F)cc(C(F)(F)F)c1)C3 [Compound 46, {[7-(3,5-Bis-trifluoromethyl-benzyl)-2-hydroxy-4-oxo-5,6,7,8-tetrahydro-4H-9-thia-1,4a,7-triaza-fluorene-3-carbonyl]-amino}-acetic acid] |  | fold induction at 50 µM (read-out: EPO fold induction, Hep3B cell line, 50 uM, 16 hours, relative to vehicle control): 2 to 4 |
| CCC1(CC)CCc2c(sc3nc(O)c(C(=O)NCC(=O)O)c(=O)n23)C1 [Compound 53, [(7,7-Diethyl-2-hydroxy-4-oxo-5,6,7,8-tetrahydro-4H-9-thia-1,4a-diaza-fluorene-3-carbonyl)-amino]-acetic acid] | < 2 |  |
| CC1(C)CCc2c(sc3nc(O)c(C(=O)NC(C)(C)C(=O)O)c(=O)n23)C1 [Compound 54, 2-[(2-Hydroxy-7,7-dimethyl-4-oxo-5,6,7,8-tetrahydro-4H-9-thia-1,4a-diaza-fluorene-3-carbonyl)-amino]-2-methyl-propionic acid] | < 2 |  |
| CC1(C)CCc2c(sc3nc(O)c(C(=O)N[C@H](C(=O)O)c4ccccc4)c(=O)n23)C1 [Compound 55, [(2-Hydroxy-7,7-dimethyl-4-oxo-5,6,7,8-tetrahydro-4H-9-thia-1,4a-diaza-fluorene-3-carbonyl)-amino]-phenyl-acetic acid, L-isomer] | < 2 |  |
| O=C(O)CNC(=O)c1c(O)nc2sc3c(n2c1=O)CCC(NC(=O)c1ccccc1)C3 (centres unmarked) [Compound 56, [(7-Benzoylamino-2-hydroxy-4-oxo-5,6,7,8-tetrahydro-4H-9-thia-1,4a-diaza-fluorene-3-carbonyl)-amino]-acetic acid] | < 2 |  |
| O=C(O)CNC(=O)c1c(O)nc2oc3c(n2c1=O)CCCC3 [Compound 57, [(2-Hydroxy-4-oxo-5,6,7,8-tetrahydro-4H-9-oxa-1,4a-diaza-fluorene-3-carbonyl)-amino]-acetic acid] | < 2 |  |
| CC1CCc2c(sc3nc(O)c(C(=O)NCC(=O)O)c(=O)n23)C1 (centres unmarked) [Compound 58, [(2-Hydroxy-7-methyl-4-oxo-5,6,7,8-tetrahydro-4H-9-thia-1,4a-diaza-fluorene-3-carbonyl)-amino]-acetic acid] | 5 to 8 |  |
| CCCC1CCc2c(sc3nc(O)c(C(=O)NCC(=O)O)c(=O)n23)C1 (centres unmarked) [Compound 59, [(2-Hydroxy-4-oxo-7-propyl-5,6,7,8-tetrahydro-4H-9-thia-1,4a-diaza-fluorene-3-carbonyl)-amino]-acetic acid] | < 2 |  |
